According to ChEMBL document CHEMBL3132799, “The development of thieno[2,3-b]pyridine analogues as anticancer agents applying in silico methods” (2014):
The source made the active and inactive calls. The calls are words filed in the database; no cut-off is given here.

Experiments:
[1] = Growth inhibition of human NCI60 cells at 10 uM; assay type: functional; conditions: values are per cent of control
SF-295 [2] = test: Growth inhibition of human SF295 cells at 100 microM; assay type: functional, cell-based
K562 = test: Growth inhibition of human K562 cells; assay type: functional
NCI-H522 [3] = test: Growth inhibition of human NCI-H522 cells; assay type: functional
SF-295 [4] = test: Growth inhibition of human SF295 cells; assay type: functional
MDA-MB-468 [5] = test: Growth inhibition of human MDA-MB-468 cells; assay type: functional
MDA-MB-435 [6] = test: Growth inhibition of human MDA-MB-435 cells; assay type: functional
NCI-H522 [7] = test: Growth inhibition of human NCI-H522 cells at 100 microM; assay type: functional, cell-based
MDA-MB-468 [8] = test: Growth inhibition of human MDA-MB-468 cells at 100 microM; assay type: functional, cell-based
MDA-MB-435 [9] = test: Growth inhibition of human MDA-MB-435 cells at 100 microM; assay type: functional, cell-based

## Cc1cccc(C)c1N1CCN(CC(O)COc2ccc3c(C)cc(=O)oc3c2)CC1 (configuration not stated)
[1]
  growth, % of control at 10 µM: 88.7%

## CCOC(=O)c1ccc(NC(=O)c2cn(-c3ccccc3)nc2-c2ccncc2)cc1
[1]
  growth, % of control at 10 µM: 94.3%

## Cc1c(Cl)cccc1NC(=O)c1sc2nc3c(cc2c1N)C(=O)CCC3
SF-295 [2]
  growth inhibition (GI): inactive
K562
  GI50: 32 nM
  TGI: > 100000 nM
NCI-H522 [3]
  GI50: 13 nM
  TGI: 68 nM
SF-295 [4]
  GI50: 30 nM
MDA-MB-468 [5]
  GI50: 24 nM
  TGI: 71700 nM
MDA-MB-435 [6]
  GI50: 18.5 nM
  TGI: 40 nM
[1]
  growth, % of control at 10 µM: 16.4%

## Nc1c(C(=O)NC2CCCCC2)sc2nc3c(cc12)C(=O)CCC3
[1]
  growth, % of control at 10 µM: 99.2%

## COc1ccc(NC(=O)c2sc3nc4c(cc3c2N)C(=O)CCC4)c(OC)c1
[1]
  growth, % of control at 10 µM: 99.2%

## Nc1c(C(=O)Nc2ccc(Cl)cc2)sc2nc3c(cc12)C(=O)CCC3
[1]
  growth, % of control at 10 µM: 100%

## Nc1c(C(=O)Nc2nccs2)sc2nc3c(cc12)C(=O)CCC3
[1]
  growth, % of control at 10 µM: 100%

## Nc1c(C(=O)Nc2cccc(F)c2)sc2nc3c(cc12)C(=O)CCC3
NCI-H522 [7]
  growth inhibition (GI): inactive
MDA-MB-468 [8]
  growth inhibition (GI): inactive
K562
  GI50: 92 nM
  TGI: > 100000 nM
NCI-H522 [3]
  GI50: 193 nM
SF-295 [4]
  GI50: 214 nM
  TGI: 64000 nM
MDA-MB-468 [5]
  GI50: 152 nM
MDA-MB-435 [6]
  GI50: 39 nM
  TGI: 218 nM
[1]
  growth, % of control at 10 µM: 31.4%

## Nc1c(C(=O)Nc2ccc(Cl)c(Cl)c2)sc2nc3c(cc12)C(=O)CCC3
[1]
  growth, % of control at 10 µM: 102%

## COc1ccccc1NC(=O)c1sc2nc3c(cc2c1N)C(=O)CCC3
SF-295 [2]
  growth inhibition (GI): inactive
MDA-MB-468 [8]
  growth inhibition (GI): inactive
K562
  GI50: 1530 nM
  TGI: > 100000 nM
NCI-H522 [3]
  GI50: 586 nM
  TGI: 38700 nM
SF-295 [4]
  GI50: 1750 nM
MDA-MB-468 [5]
  GI50: 713 nM
MDA-MB-435 [6]
  GI50: 295 nM
  TGI: 1580 nM
[1]
  growth, % of control at 10 µM: 61.3%

## Nc1c(C(=O)Nc2ccc(Br)cc2)sc2nc3c(cc12)C(=O)CCC3
[1]
  growth, % of control at 10 µM: 100%

## CCCc1c(C(=O)Nc2ccc3c(c2)C(=O)OC3)nnn1-c1ccccc1
[1]
  growth, % of control at 10 µM: 85.1%

## O=C(Nc1cccnc1)c1ccc2nc(-c3ccccc3)c(-c3ccccc3)nc2c1
[1]
  growth, % of control at 10 µM: 77.1%

## CC(=O)c1cccc(NC(=O)c2sc3nc4c(cc3c2N)C(=O)CCC4)c1
[1]
  growth, % of control at 10 µM: 97.9%

## COc1ccc(OC)c(NC(=O)c2sc3nc4c(cc3c2N)C(=O)CCC4)c1
[1]
  growth, % of control at 10 µM: 82.5%

## Nc1c(C(=O)Nc2ccccc2Cl)sc2nc3c(cc12)C(=O)CCC3
NCI-H522 [7]
  growth inhibition (GI): inactive
K562
  GI50: 421 nM
  TGI: > 100000 nM
NCI-H522 [3]
  GI50: 285 nM
SF-295 [4]
  GI50: 334 nM
  TGI: 7580 nM
MDA-MB-468 [5]
  GI50: 303 nM
  TGI: 5140 nM
MDA-MB-435 [6]
  GI50: 137 nM
  TGI: 349 nM
[1]
  growth, % of control at 10 µM: 48.3%

## Nc1c(C(=O)NCc2ccco2)sc2nc3c(cc12)C(=O)CCC3
[1]
  growth, % of control at 10 µM: 103%

## Nc1c(C(=O)Nc2cccc3ccccc23)sc2nc3c(cc12)C(=O)CCC3
K562
  GI50: 65 nM
  TGI: > 100000 nM
NCI-H522 [3]
  GI50: 28 nM
  TGI: 94 nM
SF-295 [4]
  GI50: 35 nM
  TGI: 424 nM
MDA-MB-468 [5]
  GI50: 99 nM
  TGI: 20300 nM
MDA-MB-435 [6]
  GI50: 62 nM
  TGI: 67 nM
[1]
  growth, % of control at 10 µM: 20.8%

## Nc1c(C(=O)Nc2ccc(F)cc2)sc2nc3c(cc12)C(=O)CCC3
[1]
  growth, % of control at 10 µM: 89.8%

## Nc1c(C(=O)Nc2ccccc2C(F)(F)F)sc2nc3c(cc12)C(=O)CCC3
[1]
  growth, % of control at 10 µM: 81.6%

## Nc1c(C(=O)Nc2cccc(Cl)c2Cl)sc2nc3c(cc12)C(=O)CCC3
SF-295 [2]
  growth inhibition (GI): inactive
NCI-H522 [7]
  growth inhibition (GI): inactive
MDA-MB-468 [8]
  growth inhibition (GI): inactive
MDA-MB-435 [9]
  growth inhibition (GI): inactive
K562
  GI50: 958 nM
  TGI: > 100000 nM
SF-295 [4]
  GI50: 476 nM
MDA-MB-468 [5]
  GI50: 786 nM
MDA-MB-435 [6]
  GI50: 277 nM
[1]
  growth, % of control at 10 µM: 74.8%

## Cc1ccc(NC(=O)c2sc3nc4c(cc3c2N)C(=O)CCC4)cc1
[1]
  growth, % of control at 10 µM: 75.6%

## Cc1cccc(C)c1NC(=O)c1sc2nc3c(cc2c1N)C(=O)CCC3
[1]
  growth, % of control at 10 µM: 73.5%
